Consider four compounds from patent publication US20230218577A1, “USE OF HEAT SHOCK PROTEIN INHIBITORS FOR THE TREATMENT OF NEURODEVELOPMENTAL DISORDERS” (The Children's Medical Center Corporation, priority 2020, published 2023).

For this experiment, the system named is Hsp27, Hsp40, Hsp60, Hsp70, Hsp90 expression in Tsc2-sh neurons. Kind of experiment: Western blot of heat shock proteins in Tsc2-sh neurons. The class given is cell-based, rat. The note with it: for down-regulating Hsp27 expression: increasing doses for four days DIV 9-13. An excerpt:
To investigate the mechanism and explore the pharmacological window by which 17-AGG increases ciliation in Tsc2-knockdown neurons, the heat shock response in these neurons was examined. The heat shock proteins (Hsps) are divided into six families based on their size, and these proteins function in multi-component complexes that are closely inter-related (Chatterjee and Burns, Targeting Heat Shock Proteins in Cancer: A Promising Therapeutic Approach; Int J Mol Sci 18 (2017)). In addition, while most of them are constitutively expressed, some are expressed only under stress (Garrido et al., Heat shock proteins 27 and 70: anti-apoptotic proteins with tumorigenic properties; Cell Cycle 5, 2592-2601 (2006)). Expression levels of Hsp90 and other HSP family members at DIV13 and DIV20 was assessed following four days of treatment with different concentrations of the Hsp90 inhibitor 17-AGG. In the absence of any compound, Tsc2-knockdown neurons had increased levels of the small heat shock protein 27 (Hsp27) with no change in Hsp90, Hsp70, Hsp60 and Hsp40 (FIGS. 5A-L). […] In addition, there was no change observed in Hsp27 expression due to treatment with 17-AGG in Tsc2 knockdown neurons at DIV20, consistent with the lack of effect on cilia at that age (FIGS. 5G-H, FIG. 10F). Inhibition of the Hsp90 pathway by 17-AGG was confirmed by induction of Hsp40 and Hsp70, consistent with the reported release of Hsp90-dependent inhibition on HSF1 (Zou et al., Repression of heat shock transcription factor HSF1 activation by HSP90 (HSP90 complex) that forms a stress-sensitive complex with HSF1; Cell 94, 471-480 (1998)) (FIGS. 5A, C, E, G, K). It was then evaluated whether Hsp27 upregulation was linked to mTORC1 hyper-activation. […] These findings indicate that Hsp27 contributes to the mTORC1-dependent mechanism implicated in defective ciliation under loss of neuronal TSC1/2 activity.
To test whether Hsp27 down-regulation may contribute to restoring ciliation in Tsc2-deficient neurons, Hsp27 was knocked-down by hspB1 gene silencing using lentiviral expression of RFP-tagged Hsp27shRNA (RFP-Hsp27sh) or scrambled shRNA as a control (RFP-C).
The effect of CUDC-305 and NPV-HSP-990 on Hsp27 expression was then tested.
Protein extracts were lysed in 1×SDS (22 mM Tris-HCl pH 6.8, 4% Glycerol, 0.8% SDS, 1.6% β-mercaptoethanol, bromphenol blue) sample buffer, heated to 95° C. for 5 min and stored frozen. Before being subjected to discontinuous gel electrophoresis, equal amounts of all protein lysates were verified by Coomassie gel staining. For immunoblotting, equal amounts of protein lysates were subjected to SDS-PAGE, transferred to Immobilon-P Millipore and incubated in LI-COR blocking solution at RT for 2 hrs. Primary and secondary antibodies were diluted in LI-COR blocking solution to the appropriate concentrations. LI-COR IRDye secondary antibodies were used. All images were acquired using the LI-COR Odyssey Classic imager and associated Image Studio Lite analysis software (version 5.2.5). Quantification of protein expression was performed by densitometry scans of immunoblots using LI-COR Odyssey imaging system.
Western blot quantifications were performed by protein normalization using GAPDH as loading control. Level of phosphorylated proteins was expressed as the ratio of phosphorylated/total level after GAPDH normalization. Low sample size datasets were tested for normality and when appropriate they were analyzed with non-parametric tests. IC50 values were calculated using the nonlinear regression equation “dose-response curves—Inhibition” of GraphPad PRISM. Data were expressed as percent of vehicle-treated Tsc2-sh neurons which were considered 100% and drug's concentrations were transformed to logarithmic 10 scale. EC50 values were calculated using the nonlinear regression equation “dose-response curves—Stimulation” of Prism. […]
(A western blot detects proteins with antibodies after separation by electrophoresis.)

Setting [1] is: Tsc2-sh neurons, four-day dose curve.

With `C=CCNC1=C2C[C@@H](C)C[C@H](OC)[C@H](O)[C@@H](C)/C=C(\C)[C@H](OC(N)=O)[C@@H](OC)C=C/C=C(\C)C(=O)NC(=CC1=O)C2=O` [17-AGG, 3 S,5S,6R,7S,8E,10R,11S,12E,14E)-21-(allylamino)-6-hydroxy-5,11-dimethoxy-3,7,9,15-tetramethyl-16,20,22-trioxo-17-azabicyclo[16.3.1]docosa-8,12,14,18,21-pentaen-10-yl] carbamate], under setting [1], the Hsp40 expression result is recorded as “induction” and the Hsp70 expression entry is recorded as “induction”. Further, the “aberrant Hsp27 expression” value (Tsc2 knockdown cultures at DIV13, four days of 17-AGG ranging from 5-450 nM) is recorded as “reduced”. For the same compound, the Hsp27 expression entry (Tsc2 knockdown neurons at DIV20, four days of treatment) is recorded as “no change”.

As to `CO[C@H]1C[C@@H]2CC[C@@H](C)[C@@](O)(O2)C(=O)C(=O)N2CCCC[C@H]2C(=O)O[C@H]([C@H](C)C[C@@H]2CC[C@@H](O)[C@H](OC)C2)CC(=O)[C@H](C)/C=C(\C)[C@@H](O)[C@@H](OC)C(=O)[C@H](C)C[C@H](C)/C=C/C=C/C=C/1C` [rapamycin], the Hsp27 upregulation result (Tsc2-sh neurons, 20 nM rapamycin between DIV9-13, measured at DIV13) was “reduced”. For the compound `COc1cccc(-c2cc(F)ccc2[C@H]2Cc3nc(N)nc(C)c3C(=O)N2)n1` [NPV-HSP-990, (R)-2-amino-7-((R)-4-fluoro-2-(6-methoxypyridin-2-yl)phenyl)-4-methyl-7,8-dihydropyrido[4,3-d]pyrimidin-5(6H)-one], for the setting “Tsc2-sh neurons”, the “down-regulating Hsp27 expression” value is “Neither compound had a significant effect”. On the same count and under the same terms, to `CN(C)c1cc2c(cc1Sc1nc3c(N)nccc3n1CCNCC(C)(C)C)OCO2` [CUDC-305, 4-amino-2-[[6-(dimethylamino)-1,3-benzodioxol-5-yl]thio]-N-(2,2-dimethylpropyl)-1H-imidazo[4,5-c]pyridine-1-ethanamine] belongs “Neither compound had a significant effect”.
